Experimental findings from US20190092789A1, “HETEROBICYCLIC PYRIMIDINONE COMPOUNDS AND THEIR USE IN THE TREATMENT OF MEDICAL DISORDERS” (priority 2015, published 2019) are described below.

For orientation: solubility means how much of the substance goes into solution per volume. Read a high solubility as much dissolved substance.

The target of series [1] is T1, glucocerebrosidase (Gcase) (Homo sapiens, UniProt P04062).
T1 construct: 100 μL of micellar solution containing 10 nM GCase and 100 nM saposin C (Enzo ALX-201-262-C050)
T1 sequence (P04062 40-536): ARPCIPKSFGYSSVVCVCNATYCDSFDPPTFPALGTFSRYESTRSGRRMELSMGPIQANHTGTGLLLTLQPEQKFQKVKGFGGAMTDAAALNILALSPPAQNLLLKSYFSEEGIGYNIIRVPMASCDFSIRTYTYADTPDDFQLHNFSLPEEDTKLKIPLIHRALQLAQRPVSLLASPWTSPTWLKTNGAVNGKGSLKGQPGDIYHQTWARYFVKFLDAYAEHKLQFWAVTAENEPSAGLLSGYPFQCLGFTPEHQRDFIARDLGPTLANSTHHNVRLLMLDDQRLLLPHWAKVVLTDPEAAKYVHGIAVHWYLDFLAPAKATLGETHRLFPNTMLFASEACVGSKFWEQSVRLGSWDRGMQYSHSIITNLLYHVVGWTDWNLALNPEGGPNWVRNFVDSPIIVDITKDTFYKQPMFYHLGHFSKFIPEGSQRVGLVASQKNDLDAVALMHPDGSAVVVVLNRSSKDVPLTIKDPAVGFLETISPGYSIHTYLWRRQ
Briefly: Glucocerebrosidase (Gcase) activation assay, 4-methylumbelliferyl-beta-D-glucopyranoside substrate, with saposin C. Format: biochemical. The following applies: 10 nM GCase, 100 nM saposin C, pH 4.7; for activation at 0.1 µM: read-out: Percent Gcase Activation, 0.1 μM Test Compound; for activation at 1 µM: 0.25 h, read-out: Percent Gcase Activation, 1 μM Test Compound. Here is the method:
A 484 μL aliquot of a 1.0 mg/mL solution of phosphatidylserine (PS) (Sigma P7769) in chloroform was evaporated under a stream of nitrogen for 1 hour. The lipid film was dissolved over 4 minutes of vigorous vortexing in 40 mL of 176 mM K2HPO4/50 mM citric acid (pH 4.7) containing 7.5 μL of triton X-100, resulting in a mixed micellar preparation with a composition of 0.32 mM triton and 0.37 mol % PS. 4-Methylumbelliferyl-beta-D-glucopyranoside (ACROS-337025000) was dissolved in the micellar solution to a final concentration of 2 mM for use as the reaction substrate.
Test compounds were diluted to the desired concentrations with dimethylsulfoxide (DMSO) from 10 mM stocks, and 0.41 μL of the DMSO compound mixture was added to 100 μL of micellar solution containing 10 nM GCase and 100 nM saposin C (Enzo ALX-201-262-C050). Pre-incubation was allowed to occur for 30 minutes at room temperature, after which the reaction was initiated by combining 25 μL of substrate solution with 25 μL of compound/GCase/saposin mixture. The reaction proceeded for 15 minutes at room temperature and was stopped by adding 150 μL of 1M glycine, pH 12.5. The endpoint of the reaction was monitored by measuring fluorescence intensity (excitation: 365 nm; emission: 440 nm) on a SpectraMax i3 instrument (Molecular Devices). Test compounds were screened at 1.0 and 0.1 μM final concentration, and subsequent 8-point dose response curves were obtained using 3-fold dilutions from a maximum final concentration of 5 μM.

Series [2] can be described thus: Compound solubility in water.

In brackets after ≈: the same amount, converted by molar mass.

Regarding `CCc1ccc(NC(=O)c2cnc3occn3c2=O)cc1`, the activation at 0.1 µM in series [1] (0.1 μM test compound) is under 5%. The activation at 1 µM in series [1] (1 μM test compound) lay in the range of 5 to 10%.

`CCC(C)c1ccc(NC(=O)c2cnc3occn3c2=O)cc1` (stereo not shown) yielded a solubility in series [2] of 0.3 µg/mL (≈ 0.964 µM). The activation at 0.1 µM in series [1] (0.1 μM test compound) was under 5%. Moreover, the activation at 1 µM in series [1] (1 μM test compound) was over 10%.

In series [2], `CCC(C)c1ccc(NC(=O)c2cnc3n(C)ccn3c2=O)cc1` (stereo not shown) returned a solubility of 0.5 µg/mL (≈ 1.54 µM). Besides, the activation at 0.1 µM in series [1] (0.1 μM test compound) is under 5%. Moreover, the activation at 1 µM in series [1] (1 μM test compound) is over 10%.

In turn, `CCC(C)c1ccc(NC(=O)c2cnc3[nH]ccn3c2=O)cc1` (stereo not shown) registered a solubility in series [2] of 1.4 µg/mL (≈ 4.51 µM). Moreover, in series [1] (0.1 μM test compound), the activation at 0.1 µM is under 5%. For the same compound, the activation at 1 µM in series [1] (1 μM test compound) lay within 5 to 10%.

The compound `O=C(NC1CCc2ccccc21)c1cnc2occn2c1=O` (stereo not shown) gave a solubility in series [2] of 25.1 µg/mL (≈ 85 µM). Also, the activation at 0.1 µM in series [1] (0.1 μM test compound) was under 5%. The activation at 1 µM in series [1] (1 μM test compound) fell in the range of 5 to 10%.

`O=C(Nc1ccc2c(c1)OCCO2)c1cnc2occn2c1=O` had a solubility in series [2] of 5.5 µg/mL (≈ 17.6 µM). In series [1] (0.1 μM test compound), the activation at 0.1 µM was under 5%. The activation at 1 µM in series [1] (1 μM test compound) is under 5%.

For `CCN1CCN(c2ccc(NC(=O)c3cnc4occn4c3=O)cc2)CC1`, the solubility in series [2] came out at 40.2 µg/mL (≈ 109 µM). For the same compound, the activation at 0.1 µM in series [1] (0.1 μM test compound) was under 5%. The activation at 1 µM in series [1] (1 μM test compound) was under 5%.

Consider `O=C(Nc1ccc(N2CCCCC2)cc1)c1cnc2occn2c1=O`, for which the concentration in solution in series [2] (solubility) came to 2.2 µg/mL (≈ 6.5 µM). The activation at 0.1 µM in series [1] (0.1 μM test compound) is under 5%. In series [1] (1 μM test compound), the activation at 1 µM was under 5%.

The compound `C[C@@H](NC(=O)c1cnc2occn2c1=O)c1ccccc1` gave a solubility in series [2] of 25.6 µg/mL (≈ 90.4 µM). Moreover, the activation at 0.1 µM in series [1] (0.1 μM test compound) is under 5%. For the same compound, the activation at 1 µM in series [1] (1 μM test compound) was under 5%.

`O=C(NC1CCC(c2ccccc2)CC1)c1cnc2occn2c1=O` (stereo not shown): the solubility in series [2] came out at 58 µg/mL (≈ 172 µM). Besides, in series [1] (0.1 μM test compound), the activation at 0.1 µM is under 5%. The activation at 1 µM in series [1] (1 μM test compound) is over 10%.

In turn, `CN1Cc2ccc(NC(=O)c3cnc4occn4c3=O)cc2C1` gave a solubility in series [2] of 16.6 µg/mL (≈ 53.5 µM). The activation at 0.1 µM in series [1] (0.1 μM test compound) was under 5%. The activation at 1 µM in series [1] (1 μM test compound) is 5 to 10%.

`O=C(NC1CCc2ccccc2C1)c1cnc2occn2c1=O` (stereo not shown) gave a solubility in series [2] of 22.6 µg/mL (≈ 73.1 µM). Besides, the activation at 0.1 µM in series [1] (0.1 μM test compound) lay within 5 to 10%. Also, in series [1] (1 μM test compound), the activation at 1 µM was under 5%.

In the case of `C#Cc1ccc(NC(=O)c2cnc3occn3c2=O)cc1`, the concentration in solution in series [2] (solubility) came to 5.5 µg/mL (≈ 19.7 µM). The activation at 0.1 µM in series [1] (0.1 μM test compound) fell in the range of 5 to 10%. Besides, the activation at 1 µM in series [1] (1 μM test compound) was 5 to 10%.

In the case of `O=C(NC1CCCc2ccccc21)c1cnc2occn2c1=O` (stereo not shown), the concentration in solution in series [2] (solubility) was 30.2 µg/mL (≈ 97.6 µM). The activation at 0.1 µM in series [1] (0.1 μM test compound) was under 5%. Moreover, in series [1] (1 μM test compound), the activation at 1 µM was over 10%.

With “N-(4-butylcyclohexyl)-6-oxo-3,4-dihydro-2H,6H-pyrimido[2,1-b][1,3]thiazine-7-carboxamide”, the “Percent Gcase Activation, 0.1 μM Test Compound” value in series [1] (0.1 μM test compound) is recorded as “+ (less than 5% Gcase activation)”. In series [1] (1 μM test compound), the “Percent Gcase Activation, 1 μM Test Compound” value was “+++ (Gcase activation greater than 10%)”.
